Laboratory results: ChEMBL document CHEMBL6114969, “Ultra-short lipopeptides containing d-amino acid exhibiting excellent stability and antibacterial activity against gram-positive bacteria” (Eur J Med Chem, 2025)
Values after ≈ are worked out from the molar mass of the structure shown. Active and inactive are the calls of the source. The calls are words filed in the database; no cut-off is given here.

What was measured:
Staphylococcus aureus [1] = assay: Antibacterial activity against Staphylococcus aureus ATCC 25923 incubated for 18 to 24 hrs by broth microdilution method; type: functional; conditions: time 18-24 hrs
[2] = Hemolytic activity in mouse Red blood cells incubated for 1 hr by absorbance based analysis; type: toxicity, cell-based; conditions: erythrocyte
Staphylococcus aureus [3] = assay: Antibacterial activity against methicillin-resistant Staphylococcus aureus ATCC 33591 incubated for 18 to 24 hrs in presence of 2 mg/ml of pepsin by broth microdilution method; type: functional; conditions: time 18-24 hrs
Staphylococcus aureus [4] = assay: Antibacterial activity against methicillin-resistant Staphylococcus aureus ATCC 33591 assessed as fold change in MIC incubated for 18 to 24 hrs in presence of 10 percent mouse serum by broth microdilution method; type: functional; conditions: time 18-24 hrs
Staphylococcus aureus [5] = assay: Synergistic bactericidal activity against methicillin-resistant Staphylococcus aureus ATCC 33591 incubated for 18 to 24 hrs in presence of Polymyxin B by time-kill assay; type: functional, organism-based; conditions: time 18-24 hrs
Staphylococcus aureus [6] = assay: Synergistic bactericidal activity against persistent methicillin-resistant Staphylococcus aureus ATCC 33591 incubated for 18 to 24 hrs in presence of ciprofloxacin by time-kill assay; type: functional, organism-based; conditions: time 18-24 hrs
Staphylococcus aureus [7] = assay: Synergistic bactericidal activity against persistent methicillin-resistant Staphylococcus aureus ATCC 33591 incubated for 18 to 24 hrs in presence of imipenem by time-kill assay; type: functional, organism-based; conditions: time 18-24 hrs
Staphylococcus aureus [8] = assay: Antibacterial activity against ciprofloxacin-resistant Staphylococcus aureus ATCC 25923 incubated for 18 to 24 hrs; type: functional; conditions: time 18-24 hrs
Staphylococcus aureus [9] = assay: Antibacterial activity against ciprofloxacin-resistant methicillin-resistant Staphylococcus aureus ATCC 33591 incubated for 18 to 24 hrs; type: functional; conditions: time 18-24 hrs
Staphylococcus aureus [10] = assay: Antibacterial activity against polymyxin B-resistant methicillin-resistant Staphylococcus aureus ATCC 33591 incubated for 18 to 24 hrs; type: functional; conditions: time 18-24 hrs
Staphylococcus aureus [11] = assay: Synergistic antibacterial activity against methicillin-resistant Staphylococcus aureus ATCC 33591 assessed as fractional inhibitory concentration index upto 2 times MIC incubated for 18 to 24 hrs in presence of imipenem by checkerboard assay; type: functional; conditions: time 18-24 hrs
Staphylococcus aureus [12] = assay: Synergistic antibacterial activity against methicillin-resistant Staphylococcus aureus ATCC 33591 assessed as fractional inhibitory concentration index upto 2 times MIC incubated for 18 to 24 hrs in presence of gentamicin by checkerboard assay; type: functional; conditions: time 18-24 hrs
Staphylococcus aureus [13] = assay: Elimination of biofilm generation of methicillin-resistant Staphylococcus aureus ATCC 33591 incubated for 24 hrs by MTT assay; type: functional, organism-based
Staphylococcus aureus [14] = assay: Bactericidal activity against methicillin-resistant Staphylococcus aureus ATCC 33591 at 4 times MIC incubated for 24 hrs in presence of 8 ug/ml LTA by absorbance based assay; type: functional, organism-based
Staphylococcus aureus [15] = assay: Induction of cell membrane damage in methicillin-resistant Staphylococcus aureus ATCC 33591 assessed as protein leakage at 2 to 8 times MIC measured upto 360 mins by absorbance based assay; type: functional, organism-based
Staphylococcus aureus [16] = assay: Destruction of cell membrane in methicillin-resistant Staphylococcus aureus ATCC 33591 measured upto 360 mins by absorbance based assay; type: functional, organism-based
Staphylococcus aureus [17] = assay: Induction of ROS production in methicillin-resistant Staphylococcus aureus ATCC 33591 at 4 times MIC measured upto 360 mins in presence of NAC by DCFH-DA dye based analysis; type: functional, organism-based
[18] = Toxicity in Balb/c mouse assessed as body weight change at 20 to 80 mg/kg, ip measured after 7 days; type: organism-based; conditions: in vivo, 168 h, dose 20-80 mg/kg, time 7 day
[19] = Toxicity in Balb/c mouse assessed as change in liver co-efficient at 20 to 80 mg/kg, ip measured after 7 days; type: organism-based; conditions: in vivo, 168 h, dose 20-80 mg/kg, time 7 day
[20] = Toxicity in Balb/c mouse assessed as change in spleen co-efficient at 20 to 80 mg/kg, ip measured after 7 days; type: organism-based; conditions: in vivo, 168 h, dose 20-80 mg/kg, time 7 day
[21] = Toxicity in Balb/c mouse assessed as inflammatory cell infiltration in kidney at 80 mg/kg, ip measured after 7 days by H and E staining based analysis; type: organism-based; conditions: in vivo, 168 h, time 7 day
[22] = Toxicity in Balb/c mouse assessed as cell swelling in liver at 80 mg/kg, ip measured after 7 days by H and E staining based analysis; type: organism-based; conditions: in vivo, 168 h, time 7 day
[23] = Toxicity in Balb/c mouse assessed as inflammatory cell infiltration in liver at 80 mg/kg, ip measured after 7 days by H and E staining based analysis; type: organism-based; conditions: in vivo, 168 h, time 7 day
[24] = Toxicity in Balb/c mouse assessed as cell swelling in spleen at 80 mg/kg, ip measured after 7 days by H and E staining based analysis; type: organism-based; conditions: in vivo, 168 h, time 7 day
Staphylococcus aureus [25] = assay: Antibacterial activity against methicillin-resistant Staphylococcus aureus ATCC 33591 infected in Balb/c mouse model of acute systemic infection assessed as reduction in bacterial count in kidney at 10 mg/kg, ip measured after 5 days; type: functional, organism-based; conditions: time 5.0 day
Staphylococcus aureus [26] = assay: Antibacterial activity against methicillin-resistant Staphylococcus aureus ATCC 33591 infected in Balb/c mouse model of acute systemic infection assessed as reduction in inflammatory cell infiltration in heart at 10 mg/kg, ip measured after 5 days by H and E staining based analysis; type: functional, organism-based; conditions: time 5.0 day
Staphylococcus aureus [27] = assay: Antibacterial activity against methicillin-resistant Staphylococcus aureus ATCC 33591 infected in Balb/c mouse model of acute systemic infection assessed as reduction in cell swelling in liver at 10 mg/kg, ip measured after 5 days by H and E staining based analysis; type: functional, organism-based; conditions: time 5.0 day
Staphylococcus aureus [28] = assay: Antibacterial activity against methicillin-resistant Staphylococcus aureus ATCC 33591 infected in Balb/c mouse model of acute systemic infection assessed as reduction in bleeding in liver at 10 mg/kg, ip measured after 5 days by H and E staining based analysis; type: functional, organism-based; conditions: time 5.0 day
Staphylococcus aureus [29] = assay: Antibacterial activity against methicillin-resistant Staphylococcus aureus ATCC 33591 infected in Balb/c mouse model of acute systemic infection assessed as reduction in hemorrhage in lung at 10 mg/kg, ip measured after 5 days by H and E staining based analysis; type: functional, organism-based; conditions: time 5.0 day
Staphylococcus aureus [30] = assay: (§1) Antibacterial activity against methicillin-resistant Staphylococcus aureus ATCC 33591 infected in Balb/c mouse model of acute systemic infection assessed as reduction in alveolar contraction in lung at 10 mg/kg, ip measured after 5 days by H and E staining based analysis; type: functional, organism-based; conditions: time 5.0 day
Mus musculus = assay: In vivo inhibition of inflammation in Balb/c mouse model of acute systemic infection infected with methicillin-resistant Staphylococcus aureus ATCC 33591 assessed as reduction in TNF-alpha activity at 10 mg/kg, ip measured after 5 days; type: functional, organism-based; conditions: time 5.0 day
Staphylococcus aureus [31] = assay: as §1, with “pneumonia” for “acute systemic”, “ip administered thrice at 4, 8 and 12 hrs post-infection” for “ip”, “24 hrs post-infection in presence of polymyxin B” for “5 days”; type: functional, organism-based; conditions: time 20.0 hrs
Staphylococcus aureus [32] = assay: Antibacterial activity against methicillin-resistant Staphylococcus aureus ATCC 33591 infected in Balb/c mouse model of pneumonia infection assessed as reduction in TNF-alpha activity in lung at 10 mg/kg, ip administered thrice at 4, 8 and 12 hrs post-infection measured after 24 hrs post-infection by IHC analysis; type: functional, organism-based; conditions: time 20.0 hrs
Staphylococcus aureus [33] = assay: (§2) Antibacterial activity against methicillin-resistant Staphylococcus aureus ATCC 33591 infected in Balb/c mouse model of skin wound infection assessed as wound heal at 10 mg/kg, ip administered thrice at 1, 24 and 48 hrs post-infection measured after 14 days relative to control; type: functional; conditions: time 14 day
Staphylococcus aureus [34] = assay: as §2, with “reduction in TNF-alpha activity in skin” for “wound heal”, “by IHC analysis” for “relative to control”; type: functional, organism-based; conditions: time 14.0 day

CCCCCCCCCCCC(=O)N[C@H](CCCNC(=N)N)C(=O)N[C@H](CCCNC(=N)N)C(=O)N[C@H](Cc1c[nH]c2ccccc12)C(=O)O
MIC (Staphylococcus aureus [1]): 4 µM (≈ 2.8 µg/mL)
HC10 [2]: 64 µM
MIC (Staphylococcus aureus [3]): 8 µM
fold change (FC) (Staphylococcus aureus [4]): 8
Activity (Staphylococcus aureus [5]): Active; Compound Exhibited Better Effect Than Compound Alone-Treatment; Although It Was Lower Than Polymyxin B, It Significantly Reduced Dosage Of Polymyxin B And Reduced Toxicity Of The Drug
Activity (Staphylococcus aureus [6]): Dose-dependent-effect
Activity (Staphylococcus aureus [7]): Dose-dependent-effect
MIC (Staphylococcus aureus [8]): 8 µM (≈ 5.59 µg/mL)
MIC (Staphylococcus aureus [9]): 32 µM (≈ 22.4 µg/mL)
MIC (Staphylococcus aureus [10]): 16 µM (≈ 11.2 µg/mL)
fractional inhibitory concentration index (FICI) (Staphylococcus aureus [11]): 0.25
fractional inhibitory concentration index (FICI) (Staphylococcus aureus [12]): 0.125
Activity (Staphylococcus aureus [13]): Not active; Compound Activity Was Not Significant
Activity (Staphylococcus aureus [14]): inactive
Activity (Staphylococcus aureus [15]): Active
Activity (Staphylococcus aureus [16]): Dose-dependent-effect
Activity (Staphylococcus aureus [17]): inactive
Activity [18]: Non-toxic
Activity [19]: Toxic
Activity [20]: Non-toxic
Activity [21]: Toxic
Activity [22]: Toxic
Activity [23]: Toxic
Activity [24]: Toxic
Activity (Staphylococcus aureus [25]): Active
Activity (Staphylococcus aureus [26]): Active
Activity (Staphylococcus aureus [27]): Active
Activity (Staphylococcus aureus [28]): Active
Activity (Staphylococcus aureus [29]): Active
Activity (Staphylococcus aureus [30]): Active
inhibition (Mus musculus): Active
Activity (Staphylococcus aureus [31]): Not active; Compound Exerted Slightly More Severe Than Compound Treatment Alone
Activity (Staphylococcus aureus [32]): Active
Activity (Staphylococcus aureus [33]): 100%
Activity (Staphylococcus aureus [34]): Active
